The compounds below were run on KYSE-150 esophageal carcinoma cell line (assay: In vitro cell-based assay: cellular proliferation via BrdU incorporation (ELISA)). Conditions: Homo sapiens, KYSE-150, 168 hours compound incubation.
Parameters: species or system human
Protocol: The primary cellular assay for JMJD2C inhibition is an assay which measures cellular proliferation via Bromodeoxyuridine (BrdU) incorporation after 168 hours of compound incubation. Cell lines tested include the JMJD2C gene amplified cell line KYSE-150. This is a quantitative ELISA assay measuring DNA incorporation of BrdU during S-phase as a direct readout of cellular proliferation.
Assay Principle: This is a colorimetric immunoassay for the quantification of cell proliferation. Cells treated for 168 hours with test compounds are assayed for their ability to go through S-phase as a measure of their proliferative potential.
Assay Method: The human KYSE-150 (SMAD4 mut, TP53 mut) esophageal carcinoma cell line was seeded at 2,000 cells/well on a 96-well tissue culture treated plate. After an overnight incubation, cells were treated with compound in an 11-point dilution series with final concentrations ranging from 100 μM to 2 nM. Cells were then incubated in the presence of compound for 168 hours. After compound incubation the cells were assayed using a BrdU Cell Proliferation ELISA (Roche). The cells were first incubated with BrdU labeling reagent for 2 hours. After 2 hours, the BrdU incorporated cells were fixed and denatured, probed with an anti-BrdU-Peroxidase antibody for 1.5 hours and washed. Finally, a tetramethylbenzidine peroxidase substrate was added to each well for 15 minutes followed by a H2SO4 stop solution. The plate was read at 450 nm, and the raw optical density data was transferred into XLFit (IDBS) for IC50 calculation using the formula: fit=(D+((Vmax*(x^n))/((x^n)+(Km^n))))

| IC50 | Compound |
| --- | --- |
| ≤ 100 nM | C[C@@H](O)c1ccc(N(C)c2ccc3c(c2)CCC[C@H]3CNc2cnccc2C(=O)O)cc1 (single isomer, unassigned) [Example 168] |
| ≤ 100 nM | C[C@H](O)c1ccc(N(C)c2ccc3c(c2)CCC[C@H]3CNc2cnccc2C(=O)O)cc1 (single isomer, unassigned) [Example 169] |
| 1000 to 10000 nM | O=C(O)c1ccncc1NC[C@@H]1CCOc2cc(C3CCCCC3)ccc21 [Example 35, 3-({[(4R)-7-cyclohexyl-3,4-dihydro-2H-1-benzopyran-4-yl]methyl}amino)pyridine-4-carboxylic acid] |

Same assay, conditions: KYSE-150, 168 hours compound incubation

| Compound | IC50 |
| --- | --- |
| 3-({[(1R)-6-[cyclopentyl(methyl)amino]-1,2,3,4-tetrahydronaphthalen-1-yl]methyl}amino)pyridine-4-carboxylic acid [Example 133] | 1000 to 10000 nM |
| 3-({[(1R)-6-[methyl(2-methyl-1,3-thiazol-4-yl)amino]-1,2,3,4-tetrahydronaphthalen-1-yl]methyl}amino)pyridine-4-carboxylic acid [Example 139] | ≤ 100 nM |

These compounds were tested against JMJD2C (Homo sapiens (Human), UniProt Q9H3R0) (assay: In vitro enzyme inhibition assay for JMJD2C activity (TR-FRET)). Conditions: not given.
JMJD2C, sequence (Q9H3R0 2-372): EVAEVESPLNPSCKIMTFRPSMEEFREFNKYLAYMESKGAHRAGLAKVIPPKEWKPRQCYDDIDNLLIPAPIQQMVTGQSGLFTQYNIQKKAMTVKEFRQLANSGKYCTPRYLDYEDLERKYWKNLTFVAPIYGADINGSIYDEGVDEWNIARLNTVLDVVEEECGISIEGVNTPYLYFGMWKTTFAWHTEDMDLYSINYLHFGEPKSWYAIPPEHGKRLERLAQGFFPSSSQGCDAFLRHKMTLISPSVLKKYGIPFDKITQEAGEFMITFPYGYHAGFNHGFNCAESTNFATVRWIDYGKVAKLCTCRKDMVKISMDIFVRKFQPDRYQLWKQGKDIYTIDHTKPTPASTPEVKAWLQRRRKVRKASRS
Format: biochemical
Protocol: This assay determines the ability of a test compound to inhibit JMJD2C demethylase activity. Baculovirus expressed JMJD2C (GenBank Accession #BC143571, AA 2-372) was purchased from BPS Bioscience (Cat#50105).
The ability of test compounds to inhibit the activity of JMJD2C was determined in 384-well plate format under the following reaction conditions: 0.3 nM JMJD2C, 300 nM H3K9me3-biotin labeled peptide (Anaspec cat #64360), 2 μM alpha-ketoglutaric acid in assay buffer of 50 mM HEPES, pH7.3, 0.005% Brij35, 0.5 mM TCEP, 0.2 mg/ml BSA, 50 μM sodium L-ascorbate, and 2 μM ammonium iron(II) sulfate. Reaction product was determined quantitatively by TR-FRET after the addition of detection reagent Phycolink Streptavidin-allophycocyanin (Prozyme) and Europium-anti-di-methylated histone H3 lysine 9 (H3K9me2) antibody (PerkinElmer) in the presence of 5 mM EDTA in LANCE detection buffer (PerkinElmer) at a final concentration of 50 nM and 1 nM, respectively.
The assay reaction was initiated by the following: 2 μl of the mixture of 900 nM H3K9me3-biotin labeled peptide and 6 μM alpha-ketoglutaric acid with 2 μl of 11-point serial diluted inhibitor in 3% DMSO were added to each well of the plate, followed by the addition of 2 μl of 0.9 nM JMJD2C to initiate the reaction. The reaction mixture was incubated at room temperature for 30 minutes, and terminated by the addition of 6 μl of 5 mM EDTA in LANCE detection buffer containing 100 nM Phycolink Streptavidin-allophycocyanin and 2 nM Europium-anti-H3K9me2 antibody. Plates were read by EnVisionMultilabel Reader in TR-FRET mode (excitation at 320 nm, emission at 615 nm and 665 nm) after 1 hour incubation at room temperature. A ratio was calculated (665/615) for each well and fitted to determine inhibition constant (IC50).

| Compound | IC50 |
| --- | --- |
| 3-({[(1R)-6-[cyclopentyl(methyl)amino]-1,2,3,4-tetrahydronaphthalen-1-yl]methyl}amino)pyridine-4-carboxylic acid [Example 133] | 100 to 1000 nM |
| 3-({[(1R)-6-[methyl(2-methyl-1,3-thiazol-4-yl)amino]-1,2,3,4-tetrahydronaphthalen-1-yl]methyl}amino)pyridine-4-carboxylic acid [Example 139] | 100 to 1000 nM |
| Cc1ccc(S(=O)(=O)c2ccc3c(c2)CCC[C@@H]3CNc2cnccc2C(=O)O)cc1 [Example 83, 3-({[(1S)-6-(4-methylbenzenesulfonyl)-1,2,3,4-tetrahydronaphthalen-1-yl]methyl}amino)pyridine-4-carboxylic acid] | 100 to 1000 nM |
| Cc1cccc(S(=O)(=O)c2ccc3c(c2)CCC[C@@H]3CNc2cnccc2C(=O)O)c1 [Example 85, 3-({[(1S)-6-(3-methylbenzenesulfonyl)-1,2,3,4-tetrahydronaphthalen-1-yl]methyl}amino)pyridine-4-carboxylic acid] | 1000 to 10000 nM |
| O=C(O)c1ccncc1NCC1CCCc2cc(S(=O)(=O)c3cccc(F)c3)ccc21 (centres unmarked) [Example 87, 3-({[6-(3-fluorobenzenesulfonyl)-1,2,3,4-tetrahydronaphthalen-1-yl]methyl}amino)pyridine-4-carboxylic acid] | 100 to 1000 nM |
| CCc1ccc2c(c1)CCC[C@@H]2CNc1cnccc1C(=O)O [Example 90, 3-({[(1S)-6-ethyl-1,2,3,4-tetrahydronaphthalen-1-yl]methyl}amino)pyridine-4-carboxylic acid] | 100 to 1000 nM |
| COc1cc2c(cc1F)[C@@H](CNc1cnccc1C(=O)O)CCC2 [Example 96, 3-({[(1S)-7-fluoro-6-methoxy-1,2,3,4-tetrahydronaphthalen-1-yl]methyl}amino)pyridine-4-carboxylic acid] | 100 to 1000 nM |
| COc1ccc2c(c1C)CCC[C@@H]2CNc1cnccc1C(=O)O [Example 98, 3-({[(1S)-6-methoxy-5-methyl-1,2,3,4-tetrahydronaphthalen-1-yl]methyl}amino)pyridine-4-carboxylic acid] | 100 to 1000 nM |
| Cc1ccccc1-c1ccc2c(c1)OCC[C@@H]2CNc1cnccc1C(=O)O [Example 100, 3-({[(4S)-7-(2-methylphenyl)-3,4-dihydro-2H-1-benzopyran-4-yl]methyl}amino)pyridine-4-carboxylic acid] | 1000 to 10000 nM |
| COc1ccc(Cl)c(-c2ccc3c(c2)OCC[C@H]3CNc2cnccc2C(=O)O)c1 [Example 107, 3-({[(4R)-7-(2-chloro-5-methoxyphenyl)-3,4-dihydro-2H-1-benzopyran-4-yl]methyl}amino)pyridine-4-carboxylic acid] | 100 to 1000 nM |
| O=C(O)c1ccncc1NC[C@@H]1CCCc2cc(N3CCOc4ccccc43)ccc21 [Example 108, 3-({[(1R)-6-(3,4-dihydro-2H-1,4-benzoxazin-4-yl)-1,2,3,4-tetrahydronaphthalen-1-yl]methyl}amino)pyridine-4-carboxylic acid] | 1000 to 10000 nM |
| CN(c1ccc2c(c1)CCC[C@H]2CNc1cnccc1C(=O)O)C1CCOCC1 [Example 113, 3-({[(1R)-6-[methyl(oxan-4-yl)amino]-1,2,3,4-tetrahydronaphthalen-1-yl]methyl}amino)pyridine-4-carboxylic acid] | 100 to 1000 nM |

Results, then the compound that gave them:

| IC50 | Compound |
| --- | --- |
| 100 to 1000 nM | COc1cc(F)ccc1-c1ccc2c(c1)OCC[C@H]2CNc1cnccc1C(=O)O [Example 118, 3-({[(4R)-7-(4-fluoro-2-methoxyphenyl)-3,4-dihydro-2H-1-benzopyran-4-yl]methyl}amino)pyridine-4-carboxylic acid] |
| 1000 to 10000 nM | CN(c1ccc(C(F)(F)F)cc1)c1ccc2c(c1)OCC[C@H]2CNc1cnccc1C(=O)O [Example 128, 3-({[(4R)-7-{methyl[4-(trifluoromethyl)phenyl]amino}-3,4-dihydro-2H-1-benzopyran-4-yl]methyl}amino)pyridine-4-carboxylic acid] |
| 1000 to 10000 nM | O=C(O)c1ccncc1NCC1CCOc2cc(N(CC(F)(F)F)c3ccccc3)ccc21 (centres unmarked) [Example 129, 3-[({7-[phenyl(2,2,2-trifluoroethyl)amino]-3,4-dihydro-2H-1-benzopyran-4-yl}methyl)amino]pyridine-4-carboxylic acid] |
| 1000 to 10000 nM | CN(c1ccc2c(c1)CCC[C@H]2CNc1cnccc1C(=O)O)c1ccc2occc2c1 [Example 137, 3-({[(1R)-6-[(1-benzofuran-5-yl)(methyl)amino]-1,2,3,4-tetrahydronaphthalen-1-yl]methyl}amino)pyridine-4-carboxylic acid] |
| 1000 to 10000 nM | Cc1cccc(N(C)c2ccc3c(c2)CCC[C@H]3CNc2cnccc2C(=O)O)c1 [Example 143, 3-({[(1R)-6-[methyl(3-methylphenyl)amino]-1,2,3,4-tetrahydronaphthalen-1-yl]methyl}amino)pyridine-4-carboxylic acid] |
| 100 to 1000 nM | O=C(O)c1ccncc1NCC1NCCc2ccccc21 (centres unmarked) [Example 149, 3-[(1,2,3,4-tetrahydroisoquinolin-1-ylmethyl)amino]pyridine-4-carboxylic acid] |
| 1000 to 10000 nM | O=C(O)c1ccncc1NC[C@@H]1CCCc2cc(N3CCCCc4ccccc43)ccc21 [Example 162, 3-({[(1R)-6-(2,3,4,5-tetrahydro-1H-1-benzazepin-1-yl)-1,2,3,4-tetrahydronaphthalen-1-yl]methyl}amino)pyridine-4-carboxylic acid] |
| 100 to 1000 nM | CN(c1ccc(OC(F)(F)F)cc1)c1ccc2c(c1)CCC[C@H]2CNc1cnccc1C(=O)O [Example 181, 3-({[(1R)-6-{methyl[4-(trifluoromethoxy)phenyl]amino}-1,2,3,4-tetrahydronaphthalen-1-yl]methyl}amino)pyridine-4-carboxylic acid] |
| 100 to 1000 nM | CN(c1ccc(N2CC(F)(F)C2)cc1)c1ccc2c(c1)CCC[C@H]2CNc1cnccc1C(=O)O [Example 195, 3-({[(1R)-6-{[4-(3,3-difluoroazetidin-1-yl)phenyl](methyl)amino}-1,2,3,4-tetrahydronaphthalen-1-yl]methyl}amino)pyridine-4-carboxylic acid] |
| 100 to 1000 nM | CN(c1ccc(CC2CC2)cc1)c1ccc2c(c1)OCC[C@H]2CNc1cnccc1C(=O)O [Example 215, 3-({[(4R)-7-{[4-(cyclopropylmethyl)phenyl](methyl)amino}-3,4-dihydro-2H-1-benzopyran-4-yl]methyl}amino)pyridine-4-carboxylic acid] |
| 100 to 1000 nM | CN(c1ccc(C(=O)C2CC2)cc1)c1ccc2c(c1)OCC[C@H]2CNc1cnccc1C(=O)O [Example 216, 3-({[(4R)-7-[(4-cyclopropanecarbonylphenyl)(methyl)amino]-3,4-dihydro-2H-1-benzopyran-4-yl]methyl}amino)pyridine-4-carboxylic acid] |

Same assay, conditions: R-enantiomer vs S-enantiomer

| fold more potent for JMJD2C than the S-enantiomer | Compound |
| --- | --- |
| about 6 fold | O=C(O)c1ccncc1NC[C@@H]1CCOc2cc(-c3ccccc3)ccc21 [Example 84 of U.S. Pat. No. 8,952,151, 3-({[(4R)-7-phenyl-3,4-dihydro-2H-1-benzopyran-4-yl]methyl}amino)pyridine-4-carboxylic acid, reference compound] |

— US10106534B2 (CELGENE QUANTICEL RESEARCH, INC., priority 2014, dated 2018)
